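How tested: cells in 96-well plates exposed to compound for 48 hours at five concentrations. The concentration for 50% growth inhibition is given as GI50.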 Activity calls are given as the source filed them. Cut-off read from the data, not from the text of the source: active = GI50 up to about 1.1 µM and inactive = higher.
Experiments:
Assay in all cases: inhibition of tumour cell growth, NCI panel, 48 h
[1] = test system: DMS-273
[2] = test system: SNB-78
[3] = test system: HOP-18
[4] = test system: DMS-114
[5] = test system: DLD-1
[6] = test system: XF498
[7] = test system: KM-20L2
[8] = test system: RXF 631
[9] = test system: LXFL 529

SMILES | GI50 [1] | GI50 [2] | GI50 [3] | GI50 [4] | GI50 [5] | GI50 [6] | GI50 [7] | GI50 [8] | GI50 [9]
C#CCOCn1cnc2ncnc(N)c21 | > 100 µM (inactive) | > 100 µM (inactive) | > 100 µM (inactive) | > 100 µM (inactive) | > 100 µM (inactive) | > 100 µM (inactive) | – | – | –
CC(=O)N(C)OC(=O)CC(=O)c1ccccc1 | > 100 µM (inactive) | > 100 µM (inactive) | – | > 100 µM (inactive) | > 100 µM (inactive) | > 100 µM (inactive) | > 100 µM (inactive) | > 100 µM (inactive) | > 100 µM (inactive)
N[C@H](C(=O)O)[C@H](Cl)CC(=O)O | > 100 µM (inactive) | > 100 µM (inactive) | > 100 µM (inactive) | > 100 µM (inactive) | > 100 µM (inactive) | > 100 µM (inactive) | > 100 µM (inactive) | – | > 100 µM (inactive)
COc1ccccc1NC(=O)C1=C(C)NC(C)=C(C(=O)Nc2ccccc2OC)C1c1ccc(C2C(C(=O)Nc3ccccc3OC)=C(C)NC(C)=C2C(=O)Nc2ccccc2OC)cc1 | 2.32 µM (inactive) | 4.16 µM (inactive) | 18 µM (inactive) | 3.52 µM (inactive) | 1.22 µM (inactive) | 2.21 µM (inactive) | 1.71 µM (inactive) | 3.46 µM (inactive) | 1.89 µM (inactive)
Cc1nc(=O)[nH]c2[nH][nH]c(=O)c12 | – | – | > 100 µM (inactive) | > 100 µM (inactive) | – | – | – | – | > 100 µM (inactive)
CSc1ccc(/C=C2\CNC/C(=C\c3ccc(SC)cc3)C2=O)cc1 | – | – | – | 34 µM (inactive) | – | 8 µM (inactive) | – | 22.6 µM (inactive) | 21.2 µM (inactive)
N#C/C1=C(\N)CCSSSC1 | 33.3 µM (inactive) | 21.7 µM (inactive) | – | 32.7 µM (inactive) | 31.7 µM (inactive) | 51.6 µM (inactive) | 26.9 µM (inactive) | 41.1 µM (inactive) | 33.1 µM (inactive)
Cc1cc(N(CC(C)Br)CC(C)Br)ccc1/N=N/c1ccccc1C(=O)O (centres undefined) | 4.59 µM (inactive) | 11.1 µM (inactive) | 2.64 µM (inactive) | 1.22 µM (inactive) | 3.93 µM (inactive) | 1.95 µM (inactive) | 8.75 µM (inactive) | – | –
CC(=O)O[C@H]1C(=O)[C@@]2(C)C(C(OC(=O)c3ccccc3)[C@]3(O)C[C@H](OC(=O)C(OC(=O)CCCC(=O)NCCCN(C)C)C(NC(=O)c4ccccc4)c4ccccc4)C(C)=C1C3(C)C)C1(OC(C)=O)COC1C[C@@H]2O (some centres undefined) | < 0.01 µM (active) | 2.49 µM (inactive) | 0.916 µM (active) | < 0.01 µM (active) | 0.0194 µM (active) | < 0.01 µM (active) | < 0.01 µM (active) | 0.0355 µM (active) | < 0.01 µM (active)
N#CC1(Cc2ccccc2Cl)c2ccccc2C=CN1C(=O)c1ccccc1 (centres undefined) | > 100 µM (inactive) | > 100 µM (inactive) | > 100 µM (inactive) | 96.8 µM (inactive) | – | 40.1 µM (inactive) | > 100 µM (inactive) | – | 43.1 µM (inactive)
Cc1ccc(S(=O)(=O)c2ccccn2)cc1 | > 100 µM (inactive) | > 100 µM (inactive) | > 100 µM (inactive) | > 100 µM (inactive) | > 100 µM (inactive) | > 100 µM (inactive) | > 100 µM (inactive) | > 100 µM (inactive) | > 100 µM (inactive)
COc1cc2c(cc1OC)-c1c3cc(O)ccc3nn[n+]1CC2 | > 100 µM (inactive) | > 100 µM (inactive) | > 100 µM (inactive) | > 100 µM (inactive) | > 100 µM (inactive) | > 100 µM (inactive) | > 100 µM (inactive) | – | > 100 µM (inactive)
[N-]=[N+]=NC1(c2ccccc2)C(=O)C(Cl)=C(c2ccccc2)N(c2ccccc2)C1=O (centres undefined) | > 100 µM (inactive) | 31.4 µM (inactive) | > 100 µM (inactive) | 46.2 µM (inactive) | > 100 µM (inactive) | – | > 100 µM (inactive) | – | 91.6 µM (inactive)
CC(C)(C)c1cc(C=C(C#N)C#N)cc(C(C)(C)C)c1O [TYRPHOSTIN A9] | 0.736 µM (active) | – | – | 0.179 µM (active) | 0.828 µM (active) | 0.776 µM (active) | 4.61 µM (inactive) | – | 0.518 µM (active)
CN(C(=O)/C=C/c1ccccc1)C1C2CN3CCC(O2)C13 (centres undefined) | > 100 µM (inactive) | > 100 µM (inactive) | > 100 µM (inactive) | > 100 µM (inactive) | > 100 µM (inactive) | > 100 µM (inactive) | > 100 µM (inactive) | – | > 100 µM (inactive)
O=C1NC2(CCCC2)C(=O)C12CCCC2 | > 100 µM (inactive) | > 100 µM (inactive) | > 100 µM (inactive) | – | > 100 µM (inactive) | > 100 µM (inactive) | – | > 100 µM (inactive) | > 100 µM (inactive)
N#Cc1ccccc1Sc1ccccc1N | > 100 µM (inactive) | > 100 µM (inactive) | 27 µM (inactive) | 49.1 µM (inactive) | 93.1 µM (inactive) | 92 µM (inactive) | – | – | 61.5 µM (inactive)
CC(C)OP(=O)(OC(C)C)/C(=N/Nc1ccc([N+](=O)[O-])cc1)NNC(=O)c1ccccc1 | > 10 µM (inactive) | 24.4 µM (inactive) | – | 21.8 µM (inactive) | 39.2 µM (inactive) | 24.8 µM (inactive) | 48.4 µM (inactive) | – | 20 µM (inactive)
CC(C)(C)NNC(=O)CCn1[nH]c(=O)c(Cl)c(Cl)c1=O | > 100 µM (inactive) | – | > 100 µM (inactive) | > 100 µM (inactive) | > 100 µM (inactive) | > 100 µM (inactive) | > 100 µM (inactive) | > 100 µM (inactive) | > 100 µM (inactive)
FC(F)(F)C1(Cl)C(c2ccccc2)=C1c1ccccc1 | 14.3 µM (inactive) | 15.6 µM (inactive) | 20.7 µM (inactive) | 12.9 µM (inactive) | 14.8 µM (inactive) | 13.6 µM (inactive) | 16.2 µM (inactive) | 15.1 µM (inactive) | 13.4 µM (inactive)
COc1ccc(C(=O)c2cc(OC)c(OC)c(OC)c2)cc1 | 0.0863 µM (active) | 0.194 µM (active) | > 100 µM (inactive) | 0.285 µM (active) | 0.204 µM (active) | 0.432 µM (active) | 0.0715 µM (active) | 0.184 µM (active) | 0.221 µM (active)

— ChEMBL document CHEMBL1201862, “PubChem BioAssay data set” (2004)
